Reference: patent US5547962A, “5-amino-8-methyl-7-pyrrolidinylquinoline-3-carboxylic acid derivative” (priority 1993, dated 1996)

Tests used:
CHL cells = assay: Chromosomal aberration test with a Chinese hamster lung cell line (CHL); assay type: cell-based; conditions: for Chromosomal aberration: CHL cells, 100 μg/ml
Procedure: The chromosomal aberration test was conducted with a Chinese hamster lung cell line (CHL). 2-(2-Furyl)-3-(5-nitro-2-furyl)acrylamide was used as a positive control. Cells treated with the test compounds were cultured for 6 h at 37° C. in 5% CO2 -humidified air. Following the 6 h treatment the cells were washed. Fresh medium was added to the washed cells and they were cultured for a further 18 h. Colcemide was added to the cultures 2 h before the fixation of chromosome preparation, in order to collect metaphase cells.

Male Hartley guinea pigs = assay type: in vivo; conditions: 10 mg/kg i.v.; for phototoxicity, in words: UVA
Procedure: Male Hartley guinea pigs were intravenously administered test compounds at a dose of 10 mg/kg, and immediately exposed to UVA on their backs for 90 minutes.

Nc1c(F)c(N2CC[C@H](N)C2)cc2c1c(=O)c(C(=O)O)cn2C1CC1 [Reference Compound E, 5-amino-7-((S)-3-amino-1-pyrrolidinyl)-1-cyclopropyl-6-fluoro-1,4-dihydro-4-oxoquinoline-3-carboxylic acid]
toxicity (chromosomal aberration), in words (CHL cells): observed
phototoxicity, in words (Male Hartley guinea pigs): no phototoxicity
death of guinea pigs (Male Hartley guinea pigs; phototoxicity test): death of two guinea pigs out of five

Cc1c(N2CC[C@H](N)C2)c(F)cc2c(=O)c(C(=O)O)cn(C3CC3)c12 [Reference Compound F, 7-((S)-3-amino-1-pyrrolidinyl)-1-cyclopropyl-6-fluoro-1,4-dihydro-8-methyl-4-oxoquinoline-3-carboxylic acid]
toxicity (chromosomal aberration), in words (CHL cells): observed
phototoxicity, in words (Male Hartley guinea pigs): observed
Phototoxicity: number of animals with erythemas/number of animals tested (Male Hartley guinea pigs; UVA 90 minutes, 24 h after irradiation): 4/5

N[C@H]1CCN(c2cc3c(cc2F)c(=O)c(C(=O)O)cn3C2CC2)C1 [Reference Compound D, 7-((S)-3-amino-1-pyrrolidinyl)-1-cyclopropyl-6-fluoro-1,4-dihydro-4-oxoquinoline-3-carboxylic acid]
Chromosomal aberration (CHL cells; Table 1): - (<10%)
Chromosomal aberration (CHL cells; Table 2): - (<10%)
